Measured values: patent publication US20200197418A1, “COMPOUNDS FOR THE TREATMENT OF DISEASES CAUSED BY OXALATE ACCUMULATION” (UNIVERSIDAD DE GRANADA, priority 2017, published 2020)
Like-named read-outs stand apart in the source and are kept apart here. Marks after values point to notes of the source that are not given here.

Experiments:
[1] = tested on: Agxt1-KO mouse hepatocyte cultures; experiment: Oxalate reduction assay in primary hepatocyte cultures from hyperoxaluric mice, glycolate-loaded; assay type: cell-based; conditions: for Relative oxalate at 10 μM: compound at 10 μM, Agxt1-/- mouse hepatocytes with 5 mM glycolate, mean ± standard deviation; for EC50: Agxt1-KO mouse hepatocytes, 5 mM glycolate
Procedure: Isolation and culture of hepatocytes: The isolation of hepatocytes from AGT enzyme-deficient mice was carried out as described in the literature. A total of 3.0×10^5 cells/well were then cultured in 6-well plates in William's E medium supplemented with foetal bovine serum (5%), I-glutamine (2 mM), penicillin (100 U/ml), streptomycin (100 μg/ml), insulin (2.2 mIU/ml) and hydrocortisone (0.3 μg/ml). After 5 h, the medium was switched to serum-free complete William's E medium (Biochrom, Cambridge, UK), and the cells were treated with increasing concentrations of each of the drugs in the presence of 5 mM glycolate. Samples of the culture medium were collected at 24, 48 and 72 h after treatment, to quantify oxalate.
Determination of oxalate: The determination of oxalate excreted into the medium was carried out by assaying in the presence of oxalate oxidase using a commercial kit (Trinity Biotech, Co Wicklow, Ireland), following the manufacturer's indications. GraphPad Prism 5 software was used for the graphical representation of the data as the mean±SD.
The efficacy of reducing oxalate production was measured in primary hepatocyte cultures obtained from hyperoxaluric mice (Agxt1^−/−). Cultures of less than 5 days were used to prevent possible interferences due to cell differentiation. For the short-term increase in the production of oxalate in cells and for obtaining detectable levels in standard enzymatic assays, glycolate was added to the culture medium at a concentration of 5 mM. Firstly, the viability of the hepatocytes treated with increasing concentrations of each drug up to 200 μM in the presence of glycolate was tested in comparative assays with control hepatocytes not treated with a drug and at different times.
Oxalate reduction assays were then carried out. Samples of the culture medium were taken every 24 hours after treatment with each of the compounds under evaluation. In each of these samples was measured the concentration of oxalate excreted into the medium by Agxt1^−/− hepatocytes. The determination of oxalate in the samples was carried out using a colorimetric enzymatic assay based on two consecutive reactions catalysed by the enzymes oxalate oxidase and peroxidase, respectively.

[2] = tested on: mice with PH-1 (Agxt1-KO); conditions: cited from earlier work
[3] = Hepatocyte, 24 h after treatment, read-out: EC50 (24 h), reduced production of oxalate
[4] = Hepatocyte, 48 h after treatment, read-out: EC50 (48 h), reduced production of oxalate
[5] = Hepatocyte, 72 h after treatment, read-out: EC50 (72 h), reduced production of oxalate

| SMILES | Relative oxalate at 10 μM [1] | further results |
| --- | --- | --- |
| O=C(O)c1cc(-c2ccoc2)ccc1O | 0.89 ± 0.16 | – |
| Oc1ccc(-c2ccoc2)cc1O | 1.02 ± 0.3 | – |
| O=Cc1ccc(-c2ccc(C(=O)O)c(O)c2)o1 | 0.88 ± 0.18 | – |
| COc1cc(-c2ccc(C=O)o2)ccc1C(=O)O | 0.82 ± 0.04 | – |
| O=C(O)c1cc([N+](=O)[O-])c(-c2ccco2)cc1O | 0.86 ± 0.04 | – |
| O=C(O)c1ccc(-c2ccc(CO)o2)cc1O | 0.88 ± 0.01 | – |
| O=C(O)c1cc(-c2ccc(CO)o2)ccc1O | 0.88 ± 0.19 | – |
| CC(=O)c1ccc(-c2ccc(C(=O)O)c(O)c2)s1 | 0.89 ± 0.14 | – |
| O=C(O)c1cc(-c2cccs2)ccc1O | 0.82 ± 0.01 | – |
| O=C(O)c1ccc(-c2cccs2)cc1O | 0.74 ± 0.16 | – |
| O=C(O)c1ccc(-c2ccncc2)cc1O | 0.88 ± 0.03 | – |
| COc1cccc(-c2ccc(C(=O)O)c(O)c2)c1 | 0.83 ± 0.03 | – |
| O=C(O)c1ccc(-c2ccc(O)cc2)cc1O | 0.82 ± 0.01 | – |
| O=C(O)c1cc(-c2ccc(F)cc2F)ccc1O | 0.88 ± 0.08 | – |
| O=C(O)c1cc(-c2ccc(OCc3ccccc3)cc2)ccc1O | 0.8 ± 0.16 | – |
| COc1ccc(COc2ccc(-c3ccc(C(=O)O)c(O)c3)cc2)cc1 | 0.90 ± 0.16 | – |
| O=C(O)c1ccc(-c2ccccc2COc2cc(F)cc(F)c2)cc1O | 0.72 ± 0.16 | – |
| O=C(O)c1ccc(-c2ccccc2COc2cccc(C(F)(F)F)c2)cc1O | 0.62 ± 0.29 | – |
| O=C(O)c1cc(-c2ccccc2COc2cccc(C(F)(F)F)c2)ccc1O | 0.68 ± 0.21 | – |
| N.O=C(O)c1cc(-c2ccc(CNc3ccc(Br)cc3)o2)ccc1O | 0.373 ± 0.063 | – |
| C#CCCCC(=O)Nc1ccc(C(=O)c2ccc(NCc3ccc(-c4ccc(O)c(C(=O)O)c4)o3)cc2)cc1.N | 0.144 ± 0.322 | – |
| N.O=C(O)c1cc(-c2ccc(CNc3ccc([N+](=O)[O-])cc3)o2)ccc1O | −0.236 ± 0.115 | – |
| O=C(O)c1nnsc1Sc1ccc(Cl)cc1 [CCPST, reference compound] | – | EC50 ([1]; 24 h after treatment, read-out: EC50 (24 h), reduced production of oxalate): 25.3 µM; EC50 ([1]; 48 h after treatment, read-out: EC50 (48 h), reduced production of oxalate): 32.9 µM; EC50 ([1]; 72 h after treatment, read-out: EC50 (72 h), reduced production of oxalate): 33.9 µM; effectiveness in reducing oxalate levels [2]: reducing oxalate levels |
| O=C(O)c1ccc(-c2ccco2)cc1O [Compound 73, 4-(2-furyl)-2-hydroxybenzoic acid] | – | EC50 [1, 3]: 9.35 µM; EC50 [1, 4]: 92.2 µM |
| O=C(O)c1cc(-c2ccco2)ccc1O [Compound 74, 5-(2-furyl)-2-hydroxybenzoic acid] | – | EC50 [1, 3]: 3.59 µM; EC50 [1, 4]: 7.88 µM; EC50 [1, 5]: 9.2 µM |
| O=Cc1ccc(-c2ccc(O)c(C(=O)O)c2)o1 [Compound 78, 5-(5-formyl-2-furyl)-2-hydroxybenzoic acid] | – | EC50 [1, 3]: 3.45 µM; EC50 [1, 4]: 8.36 µM; EC50 [1, 5]: 11.2 µM |
| O=C(O)c1ccc(-c2ccco2)cc1O [drawing 12] | 0.87 ± 0.15 | – |
| O=C(O)c1cc(-c2ccco2)ccc1O [drawing 13] | −0.25 ± 0.2 | – |
| O=Cc1ccc(-c2ccc(O)c(C(=O)O)c2)o1 [drawing 17] | −0.06 ± 0.29^a | – |
